Experimental data published in patent publication US20240116946A1 (Gilead Sciences, Inc., priority 2022, published 2024).
Like-named read-outs stand apart in the source and are kept apart here.

How the values were obtained:
[1] = biological target: recombinant SARS-CoV-2 Main protease (Mpro) (Severe acute respiratory syndrome coronavirus 2 (2019-nCoV) (SARS-CoV-2), UniProt P0DTD1); assay: Cov Mpro Biochemical IC50 Assay
[2] = system: SARS-CoV-2-NLuc; assay: microbe, parasite or virus in culture; assay type: cell-based, SARS Coronavirus 2
[3] = recombinant SARS-CoV-2 Mpro 7.5 nM, fluorogenic peptide substrate 40 μM, read-out: MPro IC50
[4] = recombinant SARS-CoV-2 Mpro, fluorogenic peptide substrate, read-out: MPro IC50
[5] = Severe acute respiratory syndrome coronavirus, 48 h, read-out: MPro EC50
[6] = Severe acute respiratory syndrome coronavirus, 48 h; read-out: MPro EC50

COc1cc(-c2cc3c(s2)c(=O)n(-c2cncc4nc(C)n(C)c24)c(=O)n3CCC#N)c(Cl)cc1F (single isomer, unassigned) [Example 969, 3-(6-(2-chloro-4-fluoro-5-methoxyphenyl)-3-(1,2-dimethyl-1H-imidazo[4,5-c]pyridin-7-yl)-2,4-dioxo-3,4-dihydrothieno[3,2-d]pyrimidin-1(2H)-yl)propanenitrile]
IC50 [1, 3]: > 1000 nM | EC50 ([2]; read-out: MPro EC50): > 1000 nM

COc1ccc(Cn2c(=O)n(-c3cncc4ccccc34)c(=O)c3sc(-c4cccc5c4CCC5)cc32)cc1 [Example 167, 6-(2,3-dihydro-1H-inden-4-yl)-3-(isoquinolin-4-yl)-1-(4-methoxybenzyl)thieno[3,2-d]pyrimidine-2,4(1H,3H)-dione]
IC50 [1, 4]: 49700 nM | EC50 [2, 5]: 4510 nM

COc1cc(-c2ccc3c(=O)n(-c4cncc5ccccc45)c(=O)[nH]c3c2)c(Cl)cc1F [Example 299]
IC50 [1, 4]: 72.4 nM | EC50 [2, 5]: 36.1 nM

Cn1cc(-c2cccc(Cl)c2-c2cc3[nH]c(=O)n(-c4cncc5ccccc45)c(=O)c3s2)c(C2CC2)n1 [Example 527]
IC50 [1, 3]: 3.22 nM | EC50 [2, 5]: 1.45 nM

N#CCCn1c(=O)n(-c2cncc(Cl)c2)c(=O)c2sc(-c3ccc(F)cc3Cl)cc21 [Example 787]
IC50 [1, 3]: 13 nM | EC50 [2, 5]: 33.2 nM

COc1cc(-c2cc3c(s2)c(=O)n(-c2cncc4ccccc24)c(=O)n3[C@H]2C[C@H](C#N)C2)c(Cl)cc1F [Example 695]
IC50 [1, 3]: 16.2 nM | EC50 [2, 5]: 45.9 nM

COc1cc(-c2cc(OC)c3c(=O)n(-c4cncc5ccccc45)c(=O)[nH]c3c2)c(C#N)cc1F [Example 679]
IC50 [1, 3]: 25.4 nM | EC50 [2, 5]: 80.1 nM

COc1cc(-c2cc3c(s2)c(=O)n(-c2cncc4cccnc24)c(=O)n3CCC#N)c(Cl)cc1F [Example 904, 3-(6-(2-chloro-4-fluoro-5-methoxyphenyl)-3-(1,6-naphthyridin-8-yl)-2,4-dioxo-3,4-dihydrothieno[3,2-d]pyrimidin-1(2H)-yl)propanenitrile]
IC50 [1, 3]: 4.29 nM | EC50 [2, 5]: 1.34 nM

COc1ccc(C#N)c(-c2cc3[nH]c(=O)n(-c4cncc5cccnc45)c(=O)c3s2)c1 [Example 460, 2-(3-(1,6-naphthyridin-8-yl)-2,4-dioxo-1,2,3,4-tetrahydrothieno[3,2-d]pyrimidin-6-yl)-4-methoxybenzonitrile]
IC50 [1, 3]: 9.01 nM | EC50 [2, 5]: 60.7 nM

O=c1[nH]c2cc(-c3ccccc3)c(F)cc2c(=O)n1-c1cncc2ccccc12 [Example 38]
IC50 [1, 4]: > 100000 nM | EC50 [2, 6]: 4910 nM

O=c1[nH]c2cc(-c3c(Cl)cccc3-c3cncc(N4CCOCC4)c3)ccc2c(=O)n1-c1cncc2ccccc12 [Example 279]
IC50 [1, 4]: 5.27 nM | EC50 [2, 5]: 7.65 nM

COc1ccc(Cl)c(-c2ccc3c(=O)n(-c4cncc5ccccc45)c(=O)[nH]c3c2)c1 [Example 92, 7-(2-chloro-5-methoxy-phenyl)-3-(4-isoquinolyl)-1H-quinazoline-2,4-dione]
IC50 [1, 4]: 33.9 nM | EC50 [2, 5]: 37.5 nM

CC(C)Cn1cc(-c2cccc(Cl)c2-c2ccc3c(=O)n(-c4cncc5ccccc45)c(=O)[nH]c3c2)c(C(F)(F)F)n1 [Example 201]
IC50 [1, 4]: 110 nM | EC50 [2, 5]: 59 nM

Cc1cccc2cncc(-n3c(=O)[nH]c4cc(-c5ccccc5Cl)sc4c3=O)c12 [Example 558, 6-(2-chlorophenyl)-3-(5-methylisoquinolin-4-yl)thieno[3,2-d]pyrimidine-2,4(1H,3H)-dione]
IC50 [1, 3]: 3.39 nM | EC50 [2, 5]: 17.5 nM

O=c1[nH]c2cc(-c3ccccc3Cl)sc2c(=O)n1-c1cncc2cn(CC(F)(F)F)nc12 [Example 494]
IC50 [1, 3]: 36 nM | EC50 [2, 5]: 118 nM

COc1cc(-c2cc3[nH]c(=O)n(-c4cncc5ccn(C)c45)c(=O)c3cc2OC)c(C#N)cc1F [Example 683]
IC50 [1, 3]: 8.88 nM | EC50 [2, 5]: 43.7 nM

COc1cccc(C)c1-c1ccc2c(=O)n(-c3cncc4ccccc34)c(=O)[nH]c2c1 [Example 89]
IC50 [1, 4]: 860 nM | EC50 [2, 5]: 881 nM

COc1cc(-c2cc3[nH]c(=O)n(-c4cncc5ccccc45)c(=O)c3cc2OC)c(C#N)cc1F [Example 324, 5-fluoro-2-[3-(4-isoquinolyl)-6-methoxy-2,4-dioxo-1H-quinazolin-7-yl]-4-methoxy-benzonitrile]
IC50 [1, 4]: 7.02 nM | EC50 [2, 6]: 18.1 nM

COCCn1c(=O)n(-c2cncc3ccccc23)c(=O)c2sc(-c3ccccc3Cl)cc21 [Example 470, 6-(2-chlorophenyl)-3-(4-isoquinolyl)-1-(2-methoxyethyl)thieno[3,2-d]pyrimidine-2,4-dione]
IC50 [1, 3]: 46.8 nM | EC50 [2, 5]: 71.3 nM

COc1ccc(Cl)c(-c2ccc3c(=O)n(-c4cncc(C5CC5)c4)c(=O)[nH]c3c2)c1 [Example 191]
IC50 [1, 4]: 73.8 nM | EC50 [2, 5]: 91 nM

COc1cc(-c2nc3[nH]c(=O)n(-c4cncc5ccccc45)c(=O)c3s2)c(Cl)cc1F [Example 704]
IC50 ([1]; MPro IC50, recombinant SARS-CoV-2 Mpro 7.5 nM, fluorogenic peptide substrate 40 μM): 34.4 nM | EC50 [2, 6]: 248 nM

CC(=O)NCCn1c(=O)n(-c2cncc3ccccc23)c(=O)c2sc(-c3ccccc3Cl)cc21 [Example 614]
IC50 [1, 3]: 35 nM | EC50 ([2]; read-out: MPro EC50): 64 nM

Cc1cc(-c2cccc(Cl)c2-c2ccc3c(=O)n(-c4cncc5ccccc45)c(=O)[nH]c3c2)cc(C)n1 [Example 208]
IC50 [1, 4]: 7.56 nM | EC50 [2, 5]: 4.21 nM

COc1cnc(Cl)c(-c2cc3[nH]c(=O)n(-c4cncc5ccccc45)c(=O)c3s2)c1 (single isomer, unassigned) [Example 629, 6-(2-chloro-5-methoxypyridin-3-yl)-3-(isoquinolin-4-yl)thieno[3,2-d]pyrimidine-2,4(1H,3H)-dione]
IC50 [1, 3]: 42.4 nM | EC50 ([2]; read-out: MPro EC50): 290 nM

COc1cc(-c2cc3c(s2)c(=O)n(-c2cncc4nc(C)n(C)c24)c(=O)n3CCC#N)c(Cl)cc1F [Example 842, 3-(6-(2-chloro-4-fluoro-5-methoxyphenyl)-3-(1,2-dimethyl-1H-imidazo[4,5-c]pyridin-7-yl)-2,4-dioxo-3,4-dihydrothieno[3,2-d]pyrimidin-1(2H)-yl)propanenitrile]
IC50 [1, 3]: 6.66 nM | EC50 [2, 5]: 27.5 nM

N#CCn1c(=O)n(-c2cncc3ccccc23)c(=O)c2sc(-c3c(Cl)cccc3-c3cncc(C#N)c3)cc21 [Example 681]
IC50 [1, 3]: 4.49 nM | EC50 [2, 5]: 11.1 nM

Cc1ccc(-c2cc3[nH]c(=O)n(-c4cncc5ccccc45)c(=O)c3s2)c(Cl)n1 [Example 289]
IC50 [1, 4]: 41.7 nM | EC50 [2, 5]: 119 nM

Cc1cc(Cl)cc(Cl)c1-c1cc2[nH]c(=O)n(-c3cncc4ccccc34)c(=O)c2s1 [Example 721]
IC50 [1, 3]: 705 nM | EC50 [2, 5]: 478 nM

COc1cc(-c2cc3c(s2)c(=O)n(-c2cncc4c2n(C)c(=O)n4C)c(=O)n3CCC#N)c(Cl)cc1F [Example 937]
IC50 [1, 3]: 8.42 nM | EC50 [2, 5]: 11.4 nM

COc1ccc(Cl)c(-c2cc3[nH]c(=O)n(-c4cncc5ccc(N6CC(F)(F)OC(F)(F)C6)cc45)c(=O)c3s2)c1 [Example 229]
IC50 [1, 4]: 22.5 nM | EC50 [2, 5]: 28.9 nM

COc1cc(Cl)c(-c2cc3[nH]c(=O)n(-c4cncc5ccccc45)c(=O)c3s2)cc1OC [Example 343]
IC50 [1, 4]: 4.02 nM | EC50 [2, 5]: 7.79 nM

COc1ccc(C#N)c(-c2ccc3c(=O)n(-c4cncc5ccc(N6CCOCC6)cc45)c(=O)[nH]c3c2)c1 [Example 431]
IC50 [1, 3]: 10.5 nM | EC50 [2, 5]: 71.3 nM

COc1cc(-c2cc3c(s2)c(=O)n(-c2cncc4cnn(C5CC5)c24)c(=O)n3CCC#N)c(Cl)cc1F [Example 998]
IC50 [1, 3]: 8.93 nM | EC50 [2, 5]: 6.42 nM

CS(=O)(=O)N1CC(Nc2ccc3cncc(-n4c(=O)[nH]c5cc(-c6ccccc6Cl)sc5c4=O)c3c2)C1 [Example 406]
IC50 [1, 3]: 12.6 nM | EC50 [2, 5]: 471 nM

COc1cc(-c2cc3c(s2)c(=O)n(-c2cncc4ccccc24)c(=O)n3CC2(C#N)CC2)c(Cl)cc1F (single isomer, unassigned) [Example 636, 1-[[6-(2-chloro-4-fluoro-5-methoxy-phenyl)-3-(4-isoquinolyl)-2,4-dioxo-thieno[3,2-d]pyrimidin-1-yl]methyl]cyclopropanecarbonitrile]
IC50 [1, 3]: 11.6 nM | EC50 ([2]; read-out: MPro EC50): 5.54 nM

COc1ccc(Cl)c(-c2cc3[nH]c(=O)n(-c4cncc(CCC(=O)N5CCOCC5)c4)c(=O)c3s2)c1 [Example 575, 6-(2-chloro-5-methoxy-phenyl)-3-[5-(3-morpholino-3-oxo-propyl)-3-pyridyl]-1H-thieno[3,2-d]pyrimidine-2,4-dione]
IC50 [1, 3]: 6.66 nM | EC50 [2, 6]: 235 nM

O=c1[nH]c2cc(-c3ccccc3Cl)sc2c(=O)n1-c1cncc2ccc(N3CCC(O)(C(F)(F)F)CC3)cc12 [Example 427]
IC50 [1, 3]: 15.6 nM | EC50 [2, 5]: 24 nM

O=c1[nH]c2cc(-c3ccc(F)cc3Cl)ccc2c(=O)n1-c1cncc2ccccc12 [Example 183]
IC50 [1, 4]: 585 nM | EC50 [2, 5]: 354 nM

COc1ccc(Cl)c(-c2ccc3c(=O)n(-c4cncc5c(Cl)cccc45)c(=O)[nH]c3c2)c1 [Example 593]
IC50 [1, 3]: 38400 nM | EC50 [2, 5]: 5790 nM

COc1c(C)cncc1-n1c(=O)[nH]c2cc(-c3ccccc3Cl)sc2c1=O [Example 213]
IC50 [1, 4]: 16.4 nM | EC50 [2, 6]: 31.1 nM

COc1cc(-c2cc3c(s2)c(=O)n(-c2cncc4nc(C5CC5)n(C)c24)c(=O)n3CCC#N)c(Cl)cc1F [Example 992]
IC50 [1, 3]: 18.3 nM | EC50 [2, 5]: 112 nM

COc1ccc(C)c(-c2cc3[nH]c(=O)n(-c4cncc5ccccc45)c(=O)c3s2)c1 [Example 349]
IC50 [1, 4]: 7.23 nM | EC50 [2, 5]: 30 nM

O=c1[nH]c2cc(-c3c(Cl)cccc3-c3cn(CCO)nn3)ccc2c(=O)n1-c1cncc2ccccc12 [Example 293]
IC50 [1, 4]: 67.8 nM | EC50 [2, 5]: 748 nM

N#CCCn1c(=O)n(-c2cncc(N3CCOCC3)c2)c(=O)c2sc(-c3ccccc3C#N)cc21 [Example 817]
IC50 [1, 3]: > 1000 nM | EC50 [2, 6]: > 1000 nM

O=c1[nH]c2cc(-c3ccccc3Cl)sc2c(=O)n1-c1cncc2ccc(N3CC4(CCCO4)C3)cc12 [Example 402]
IC50 [1, 3]: 6.05 nM | EC50 [2, 5]: 12.1 nM
